Results published in patent publication US7498341B2, “Heterocyclically substituted 7-amino-4-quinolone-3-carboxylic acid derivatives, process for their preparation and their use as medicaments” (Sanofi Aventis Deutschland GmbH, priority 2004, dated 2009).

Target: T1, human glycogen phosphorylase a (Homo sapiens, UniProt P06737)
T1 sequence (P06737 2-847 limits assumed): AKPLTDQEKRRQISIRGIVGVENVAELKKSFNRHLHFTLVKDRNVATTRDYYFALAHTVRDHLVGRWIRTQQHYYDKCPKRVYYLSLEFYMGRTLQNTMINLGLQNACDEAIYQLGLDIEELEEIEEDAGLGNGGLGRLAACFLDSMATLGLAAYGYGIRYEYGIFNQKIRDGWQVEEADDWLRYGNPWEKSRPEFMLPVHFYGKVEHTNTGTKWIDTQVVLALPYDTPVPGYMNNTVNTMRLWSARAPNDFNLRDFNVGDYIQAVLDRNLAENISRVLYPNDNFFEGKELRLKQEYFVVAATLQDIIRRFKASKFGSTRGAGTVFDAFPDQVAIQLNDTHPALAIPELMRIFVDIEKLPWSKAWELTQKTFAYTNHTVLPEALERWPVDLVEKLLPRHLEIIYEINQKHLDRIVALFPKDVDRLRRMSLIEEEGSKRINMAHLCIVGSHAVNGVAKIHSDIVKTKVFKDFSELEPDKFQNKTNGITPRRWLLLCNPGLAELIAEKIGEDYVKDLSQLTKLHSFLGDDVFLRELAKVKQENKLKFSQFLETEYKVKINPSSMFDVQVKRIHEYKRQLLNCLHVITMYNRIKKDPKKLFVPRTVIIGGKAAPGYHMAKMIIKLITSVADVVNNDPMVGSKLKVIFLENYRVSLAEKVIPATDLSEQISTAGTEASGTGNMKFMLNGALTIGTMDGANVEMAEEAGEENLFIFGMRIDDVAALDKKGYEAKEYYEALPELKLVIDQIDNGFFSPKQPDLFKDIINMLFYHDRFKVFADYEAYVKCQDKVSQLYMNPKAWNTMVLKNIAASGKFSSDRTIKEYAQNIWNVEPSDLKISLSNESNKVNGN
Test: Glycogen phosphorylase a activity assay (reverse direction, liberation of inorganic phosphate)
Type: biochemical
Conditions: 10 μM test substance; in vitro inhibition of glycogen phosphorylase a
Description: Glycogen phosphorylase a Activity Assay
All the reactions were carried out as duplicate determinations in microtiter plates with 96 wells (Half Area Plates, Costar No 3696), measuring the change in absorption owing to the formation of the reaction product at the wavelength specified hereinafter in a Multiskan Ascent Elisa Reader (Lab Systems, Finland).
In order to measure the GPa enzymic activity in the reverse direction, the general method of Engers et al. (Engers H D, Shechosky S, Madsen N B, Can J Biochem 1970 July; 48(7):746-754) was used to measure the conversion of glucose 1-phosphate into glycogen and inorganic phosphate, with the following modifications: human glycogen phosphorylase a (for example with 0.76 mg of protein/ml (Aventis Pharma Deutschland GmbH), dissolved in buffer solution E (25 mM β-glycerophosphate, pH 7.0, 1 mM EDTA and 1 mM dithiothreitol) was diluted with buffer T (50 mM Hepes, pH 7.0, 100 mM KCl, 2.5 mM EDTA, 2.5 mM MgCl2.6H2O) and addition of 5 mg/ml glycogen to a concentration of 10 μg of protein/ml. […] The baseline glycogen phosphorylase a activity in the absence of test substance was determined by adding 10 μl of buffer solution T (0.1% DMSO). […] After incubation at 45° C. for 60 minutes, the absorption at 820 nm was measured. […]

SMILES | % inhibition at 10 μM [%]
Cc1ccc(C)n1Nc1cc2c(=O)c(C(=O)O)cn(Cc3ccccc3)c2cc1Cl [Example 42, 1-Benzyl-7-chloro-6-(2,5-dimethylpyrrol-1-ylamino)-4-oxo-1,4-dihydroquinolone-3-carboxylic acid] | 101
CCn1cc(C(=O)OCOC(=O)C(C)(C)C)c(=O)c2cc(Nn3c(C)ccc3C)c(Cl)cc21 [Example 53, 2,2-Dimethylpropionyloxymethyl 7-chloro-6-(2,5-dimethylpyrrol-1-ylamino)-1-ethyl-4-oxo-1,4-dihydroquinolone-3-carboxylate] | 93
